The text below walks through data of patent US7166634B2, “Bis-indole pyrroles useful as antimicrobials agents” (Nereus Pharmaceuticals, Inc., priority 2004, dated 2007).

In brackets after ≈: the same amount, converted by molar mass. Some results are limits rather than exact numbers.

Common to all, as to experiment: MIC, broth microdilution (NCCLS M7-A5)
Type in all cases: cell-based
In general terms: In broth dilution the organism is exposed to a series of concentrations in liquid medium.

The subject of test [1] is E. faecalis - Van^s (VSE 29212). Further details: VSE 29212 MIC: unit not given here. As to conditions: for MIC: E. faecalis - Van^s, Table 3. On the procedure: (§1) Minimum inhibitory concentrations (MICs) are determined according to the National Committee for Clinical Laboratory Standards (NCCLS) susceptibility test guideline M7-A5 (Ferraro, M. 2001 Methods for Dilution Antimicrobial Susceptibility Tests for Bacteria that Grow Aerobically; Approved Standard (NCCLS). National Committee for Clinical Laboratory Standards (NCCLS), Villanova) to quantify the antimicrobial activity of the compounds of the present embodiment against various pathogenic bacteria. Susceptibility testing is performed by broth microdilution in accordance with National Committee for Clinical Laboratory Standards (NCCLS) guidelines. This procedure entails combining the test compounds with a standardized number of cells, incubating at the temperature and amount of time appropriate for each particular organism, and visually scoring the concentration at which no growth was apparent in the test wells. The panel includes both drug sensitive and drug resistant isolates of both gram-positive and gram-negative bacteria, including: S. aureus (both MSSA and MRSA), S. pneumoniae (wild type and penicillin-resistant), vancomycin-sensitive E. faecalis, vancomycin-resistant E. faecium, E. coli, H. influenzae and P. aeruginosa.
(§2) Susceptibility testing was performed by broth microdilution in accordance with National Committee for Clinical Laboratory Standards (NCCLS) guidelines. Antimicrobial data for compounds of Formulae II, III, IV, VI, VII, VIII, IX, XII, XIII, XIV, XV′, XV, XVI, XVII, XVIII, XXI′, XXII, XXIII, XXIV, and XXV are shown in Tables 3, 4 and 5.

A further test has as its system E. coli - imp. As to conditions: for MIC: E. coli - imp, Table 3. On the procedure:
as §1, §2

A further test has as its system S. aureus - MRSA (43300). The settings on record: for MIC: S. aureus - MRSA, Table 3. On the procedure: as §1, §2
The next test concerns S. aureus - MSSA (29213). The settings on record: for MIC: S. aureus - MSSA, Table 3. The method, then:
as §1, §2

The test system of test [2] is S. pneumoniae - penicillin sensitive (49619). The settings on record: for MIC: S. pneumoniae - penicillin sensitive, Table 3. On the procedure:
as §1, §2

Test [3] relates to H. influenzae - ATCC 49766. As to conditions: for MIC: H. influenzae - ATCC 49766, Table 3. On the procedure:
as §1, §2

A further test deals with E. coli - ATCC 25922. As to conditions: Table 3. The method, then: as §1, §2
In test [4] the test system is S. pneumoniae - penicillin resistant (51915). As to conditions: for MIC: S. pneumoniae - penicillin resistant, Table 3. On the procedure:
as §1, §2

Test [5] relates to E. faecium - Van^r (VRE 700221). As to conditions: for MIC: E. faecium - Van^r, Table 3. The method, then: as §1, §2
Test [6] has as its system H. influenzae - ATCC 49247. As to conditions: for MIC: H. influenzae - ATCC 49247, Table 3. The method, then: as §1, §2
The test system of test [7] is S. epidermidis - ATCC 700578. Further details: Staph Epi 700578 MIC: unit not given here. The settings on record: for MIC: S. epidermidis - ATCC 700578, Table 3. The method, then: as §1, §2
The subject of test [8] is S. epidermidis - ATCC 700582. Further details: Staph Epi 700582 MIC: unit not given here. The settings on record: for MIC: S. epidermidis - ATCC 700582, Table 3. On the procedure:
as §1, §2

The mark [9] stands for this setting: Table 4, averages of 2 experiments, * single experiment, both values given when differing >2 fold.
Setting [10] is: Table 4, averages of 2 experiments, * single experiment, both values given when differing >2 fold, in µg/mL.
Where [11] appears, read: Table 4 (MIC), averages of 2 experiments, * single experiment, both values given when differing >2 fold.

On to `COC(=O)c1[nH]cc(-c2c[nH]c3cc(Cl)c(Cl)cc23)c1-c1c[nH]c2ccc(Cl)cc12` [II], for which the MIC in [1] amounted to 1.5 µg/mL (≈ 3.27 µM); against E. coli - imp it was 6 µg/mL (≈ 13.1 µM); with S. aureus - MRSA (43300), 1 µg/mL (≈ 2.18 µM); against S. aureus - MSSA (29213), 0.8 µg/mL (≈ 1.74 µM); in test [2], 8 µg/mL (≈ 17.4 µM); in test [3] it was 6 µg/mL (≈ 13.1 µM). Also, the MIC in the test with E. coli - ATCC 25922 was greater than 32 µg/mL; in [4], 8 µg/mL (≈ 17.4 µM); in test [5], 2 µg/mL (≈ 4.36 µM); in test [6], 2 µg/mL (≈ 4.36 µM); in test [7] it was 1 µg/mL (≈ 2.18 µM); in [8], 1 µg/mL (≈ 2.18 µM).
For `COC(=O)c1[nH]c(C(=O)OC)c(-c2c[nH]c3ccc(Cl)cc23)c1-c1c[nH]c2ccc(Cl)cc12` [VI], the MIC was 8 µg/mL (≈ 16.6 µM) in [1]; greater than 32 µg/mL against E. coli - imp; 3 µg/mL (≈ 6.22 µM) against S. aureus - MRSA (43300); 3 µg/mL (≈ 6.22 µM) against S. aureus - MSSA (29213); 24 µg/mL (≈ 49.8 µM) in test [2]; 8 µg/mL (≈ 16.6 µM) in [3]. For the same molecule, the MIC is greater than 32 µg/mL against E. coli - ATCC 25922; 20 µg/mL (≈ 41.5 µM) in test [4]; 8 µg/mL (≈ 16.6 µM) in test [5]; 5 µg/mL (≈ 10.4 µM) in [6]; 4 µg/mL (≈ 8.29 µM) in test [7]; 4 µg/mL (≈ 8.29 µM) in [8].
For `COC(=O)c1[nH]cc(-c2c[nH]c3ccc(Cl)cc23)c1-c1c[nH]c2ccc(Cl)cc12` [III], the MIC in [1] worked out at 8 µg/mL (≈ 18.9 µM); against E. coli - imp it was 16 µg/mL (≈ 37.7 µM); against S. aureus - MRSA (43300) it was 2 µg/mL (≈ 4.71 µM); against S. aureus - MSSA (29213), 1.8 µg/mL (≈ 4.24 µM); in [2] it was 24 µg/mL (≈ 56.6 µM); in test [3], 12 µg/mL (≈ 28.3 µM). The MIC in the test on E. coli - ATCC 25922 was greater than 32 µg/mL; in test [4], 24 µg/mL (≈ 56.6 µM); in [5] it was 8 µg/mL (≈ 18.9 µM); in test [6], 16 µg/mL (≈ 37.7 µM); in test [7], 4 µg/mL (≈ 9.43 µM); in test [8] it was 4 µg/mL (≈ 9.43 µM).
Consider `Clc1cc2[nH]cc(-c3c[nH]cc3-c3c[nH]c4cc(Cl)c(Cl)cc34)c2cc1Cl` [IV], for which the MIC worked out at 2.5 µg/mL (≈ 5.75 µM) in test [1]; 6 µg/mL (≈ 13.8 µM) against E. coli - imp; 1.5 µg/mL (≈ 3.45 µM) in the test with S. aureus - MRSA (43300); 1.1 µg/mL (≈ 2.53 µM) against S. aureus - MSSA (29213); 20 µg/mL (≈ 46 µM) in test [2]; 6 µg/mL (≈ 13.8 µM) in test [3]. Moreover, the MIC in the test on E. coli - ATCC 25922 is greater than 32 µg/mL; in test [4] it was 20 µg/mL (≈ 46 µM); in [5] it was 2 µg/mL (≈ 4.6 µM); in test [6], 4 µg/mL (≈ 9.19 µM); in test [7] it was 1 µg/mL (≈ 2.3 µM); in test [8], 1 µg/mL (≈ 2.3 µM).
Take `O=C(O)c1[nH]cc(-c2c[nH]c3cc(Cl)c(Cl)cc23)c1-c1c[nH]c2ccc(Cl)cc12` [XII]: the “VSE 29212 MIC” value in test [1] (setting [9]) was 8. For the same molecule, the “E. coli imp MIC” value in the test on E. coli - imp (Table 5) was found to be 20 µg/mL. Moreover, the “MRSA 43300 MIC” value in the test with S. aureus - MRSA (43300) (setting [10]) is 6. The “MSSA 29213 MIC” value in the test on S. aureus - MSSA (29213) (setting [10]) amounted to 4. Also, the “S. pneumo 49619 Pen. S MIC” value in test [2] (setting [10]) is greater than 32. Besides, the “H. inf. 49766” value in [3] (setting [11]) came to 10. In [4] (setting [10]), the “S. pneumo 51915 Pen R MIC” value was greater than 32. Also, the “VRE 700221 MIC” value in [5] (setting [10]) is given as 8. Further, in [6] (setting [11]), the “H. inf. 49247” value amounted to 8. For the same molecule, in test [7] (setting [9]), the “Staph Epi 700578 MIC” value came out at 3. In addition, in test [8] (setting [9]), the “Staph Epi 700582 MIC” value turned out to be 6.
